{
  "source": "patent US20040063663A1",
  "about": "“Acylated cyclodextrin: guest molecule inclusion complexes” (priority 2000, published 2004)",
  "experiment": "Thermal stability of triacetyl-β-CD (TGA)",
  "assay_type": "physicochemical",
  "description": "In order to determine the stability of triacetyl-β-CD, a sample was heated to 400° C. at 20° C./min under nitrogen in a DuPont 2200 thermogravimetric spectrometer (FIG. 7). […] A sample of triacetyl-β-CD was then held at 300° C. for 35 minutes (FIG. 8). Even after extended heating at this temperature, only about 3.2% weight loss was observed.",
  "data": [
    {"smiles": "CC(=O)OC[C@H]1O[C@@H]2O[C@H]3[C@H](OC(C)=O)[C@@H](OC(C)=O)[C@@H](O[C@H]4[C@H](OC(C)=O)[C@@H](OC(C)=O)[C@@H](O[C@H]5[C@H](OC(C)=O)[C@@H](OC(C)=O)[C@@H](O[C@H]6[C@H](OC(C)=O)[C@@H](OC(C)=O)[C@@H](O[C@H]7[C@H](OC(C)=O)[C@@H](OC(C)=O)[C@@H](O[C@H]8[C@H](OC(C)=O)[C@@H](OC(C)=O)[C@@H](O[C@H]1[C@H](OC(C)=O)[C@H]2OC(C)=O)O[C@@H]8COC(C)=O)O[C@@H]7COC(C)=O)O[C@@H]6COC(C)=O)O[C@@H]5COC(C)=O)O[C@@H]4COC(C)=O)O[C@@H]3COC(C)=O", "note": "[triacetyl-β-CD, heptakis(2,3,6-tri-O-acetyl)-β-cyclodextrin]", "values": [
      {"measurement": "Temperature until which 10% weight loss is not observed", "setting": "TGA, FIG. 7", "result": 372, "unit": "°C"},
      {"measurement": "Weight loss observed until above 325° C.", "setting": "heated to 400° C. at 20° C./min under nitrogen", "result": "ca. 0.2%"},
      {"measurement": "Weight loss", "setting": "held at 300° C. for 35 minutes", "result": "about 3.2%"}
    ]}
  ]
}
